Biological target: T1, StSPL (S1P lyase from Symbiobacterium thermophilum) (Symbiobacterium thermophilum, UniProt Q67PY4)
T1 construct: gene STH1274; full-length STH1274, C-terminal His-tag, expressed in E. coli, 507 residues, 55 kDa monomer, homodimer (110 kDa); PLP-dependent, residues of both subunits form the active site
Assay: visible spectrum of enzyme-bound cofactor, change on substrate addition
Format: binding
Settings: Schiff base with K311, covalent; S1P added; purified in PBS with 10 µM PLP

T1 sequence (Q67PY4 entry or part of it): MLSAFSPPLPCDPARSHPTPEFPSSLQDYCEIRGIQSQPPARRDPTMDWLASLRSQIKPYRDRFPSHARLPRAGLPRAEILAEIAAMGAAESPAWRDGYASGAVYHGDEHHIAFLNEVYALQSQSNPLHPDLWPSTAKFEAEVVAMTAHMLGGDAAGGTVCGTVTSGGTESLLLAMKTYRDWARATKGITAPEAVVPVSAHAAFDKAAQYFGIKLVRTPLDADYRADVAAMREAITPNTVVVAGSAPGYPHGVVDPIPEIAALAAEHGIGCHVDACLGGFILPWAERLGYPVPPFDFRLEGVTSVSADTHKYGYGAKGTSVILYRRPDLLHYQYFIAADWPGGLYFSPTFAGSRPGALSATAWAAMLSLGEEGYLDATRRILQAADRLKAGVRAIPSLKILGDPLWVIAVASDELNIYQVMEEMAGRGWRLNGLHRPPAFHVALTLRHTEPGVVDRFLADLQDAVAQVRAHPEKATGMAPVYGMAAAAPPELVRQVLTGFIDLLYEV

For `Cc1ncc(COP(=O)(O)O)c(C=O)c1O` [PLP, pyridoxal-5′-phosphate], the “visible spectrum of enzyme-bound cofactor, change on substrate addition” value was “recording spectrophotometric changes of the cofactor upon catalysis”.

Source: PMC3148216, “A Prokaryotic S1P Lyase Degrades Extracellular S1P In Vitro and In Vivo: Implication for Treating Hyperproliferative Disorders” (PLoS ONE, 2011)
